What was measured:
[1] = test system: all examined microorganisms; assay: in vitro reduction of microorganisms by methylene blue solutions in culture medium; assay type: cell-based; conditions: culture medium being used
colon tumors = conditions: 20 μg/mL, intratumorally applied, without irradiation; cited from earlier work
Gram negative germs = assay: complete reduction of Gram negative germs; assay type: cell-based; conditions: compared with 25-44 μmol for Gram positive bacteria
Source text: (§1) Completely reducing Gram negative germs requires 3-30 times higher concentrations. P. aeruginosa was reduced […] by 3.5 log10 CFU at a concentration of 200˜mol and an energy density of 100 mW/cm^2.

[2] = penetration depth of MB solutions into normal oral mucosa; conditions: after 10-min incubation time
Source text: The clinical application of PDT is possible since the stain solutions selectively color cell systems, while the interaction with the epithelium is very limited. […] Furthermore, the life expectancy of the active radicals and their precursors is microseconds, so that it is practically assured that there are no concomitant destructive effects in healthy tissue due to diffusion, since there is not enough time for this.

Gram positive bacteria = assay: in vitro reduction of Gram positive bacteria by methylene blue solutions; assay type: cell-based
Source text: Methylene blue solutions reduce almost all Gram positive bacteria in a concentration of 25-44 μmol in vitro.

P. aeruginosa = assay: photodynamic reduction of P. aeruginosa; assay type: cell-based; conditions: concentration of 200˜mol; energy density of 100 mW/cm^2
Source text: as §1

[3] = test system: Gram positive and Gram negative bacteria; assay: dark toxicity of the stains for bacteria; assay type: cell-based; conditions: TB compared with MB, without irradiation
Experimental: The observed dark toxicity was higher for toluidine blue (TB) than for methylene blue (MB). This is consistent with the distribution coefficient P that was determined to be 0.33 for TB and 0.11 for MB.
While dark toxicity for Gram positive bacteria was nearly unrelated to type, the dark toxicity for Gram negative bacteria is quite clearly a function of type and specifically corresponds to the trans-membrane permeability coefficient of the exterior membrane of Gram negative bacteria.
Dark toxicity was a function of both the concentration and the incubation period prior to irradiation.

[4] = distribution coefficient P; assay type: physicochemical

| SMILES | reduction of the number of microorganisms in the culture medium [1] | destruction of colon tumors by the substance alone (colon tumors) | concentration needed for completely reducing Gram negative germs, relative to Gram positive bacteria (Gram negative germs) | penetration depth into the epithelium [2] | concentration that reduces almost all Gram positive bacteria (Gram positive bacteria) [µmol] | reduction of P. aeruginosa (P. aeruginosa) [log10 CFU] | observed dark toxicity [3] | distribution coefficient P [4] |
| --- | --- | --- | --- | --- | --- | --- | --- | --- |
| CN(C)c1ccc2nc3ccc(=[N+](C)C)cc-3sc2c1 [Methylene blue, phenothiazin-5-ium, 3,7-bis(dimethylamino)-chloride] | able to reduce the number of all examined microorganisms | not destroyed | 3-30 times higher | 1-2 exterior layers of cells | 25 to 44 | 3.5 | – | – |
| Cc1cc2nc3ccc(N(C)C)cc3[s+]c2cc1N.[Cl-] [TB, toluidine blue] | – | – | – | – | – | – | higher | 0.33 |
